Test results from US9486434B2, “Method for delivery and use of isothiocyanates for prophylaxis and/or therapy of bladder cancer” (Health Research Inc., priority 2010, dated 2016).
Read-outs that look alike come from different tables or passages of the source.

Assays:
[1] = tested on: α-tubulin, β-tubulin, γ-tubulin, caspase-9, caspase-3, VEGF in UM-UC-3 cells; test: Western blotting in UM-UC-3 cells (tubulins, caspases, VEGF); type: cell-based, human; details: 24 h
Method: FIG. 4. Effect of AITC on mitosis, tubulin expression and apoptosis in human bladder cancer UM-UC-3 cells. Cells were treated with vehicle or AITC for 24 h (each numerical value is mean±SD). A. Flow cytometry analysis for cell cycle arrest. B. Wright-Giemsa staining for counting mitotic figures. Arrows point to cells in mitosis or mitotic catastrophe. C. Immunofluorescent staining of microtubules (green color) and DNA staining with DAPI (blue color). D. Western blotting of tubulins (GAPDH as a loading control). E. Loss of mitochondrial transmembrane potential (Δψm) measured by flow cytometry. F. Western blotting of caspase-9 and caspase-3 (GAPDH as a loading control). G. Apoptotic cells (TUNEL cells) measured by flow cytometry. Cells in F and G were co-treated with or without 20 microM Z-LEHD-FMK (a caspase-9 inhibitor).
FIG. 8. Inhibition of bladder cancer development by MSP-1. Female F344 rats were inoculated with AY-27 cells intravesically via a urethra catheter to initiate development of orthotopic bladder cancer. Oral administration of MSP-1 of vehicle (water) once daily was started 1 day after cancer cell inoculation and ended 3 weeks later. The number of rats per group varied from 11-29. A. Initial (□) and final (▪) body weights. B. Tumor weight was calculated by subtracting the average normal bladder weight from tumor-bearing bladder weight. *P<0.05. Each value in A and B is mean±SEM. C. Percentage of bladder where the tumor invaded the muscle tissue. D. The effects of MSP-1 on selected anticancer targets in UM-UC-3 cells (in vitro), AY-27 cells (in vitro) and AY-27 tumors (in vivo). The cells were treated with MSP-1 at the sinigrin concentrations of 13 and 26 microM for 24 h. The bladder tumors were removed from rats treated with MSP-1 at the sinigrin doses of 9 or 90 micromols/kg once daily for 3 weeks, started 1 day after cancer cell inoculation. Cell lysates and tumor homogenates were analyzed by Western blotting, using GAPDH as a loading control.
Western blot analysis. […]

[2] = tested on: normal human bladder epithelial cells (HUC); test: MTT cell growth assay, normal bladder epithelial cells; type: cell-based; details: 72-h treatment
Method: FIG. 3. The effect of AITC on cell survival and proliferation. AITC was evaluated at the indicated concentrations in human bladder cancer UM-UC-3 cells, rat bladder cancer AY-27 cells, and normal human bladder epithelial cells (HUC). A. Cell growth inhibition, measured by MTT assay, 72-h AITC treatment. IC50 was calculated from nonlinear regression curve fit. B. Cell cycle arrest (□, subG1; ? , G1; ? , 5; ▪, G2/M), measured by flow cytometry, 24 h AITC treatment. C. Apoptosis induction, measured by an ELISA assay, 24 h AITC treatment. Mean±SE, n=3-6), *P<0.05.

[3] = tested on: cyclooxygenase-2 (Cox-2) in human bladder cancer HT1376 cells; test: Western blot analysis of Cox-2 in HT1376 cells; type: cell-based; details: 24 h, cells overexpressing Cox-2
Method: FIG. 5. The effects of AITC and SF on cyclooxygenase-2 (Cox-2) expression in human bladder cancer cells. Human bladder cancer HT1376 cells that over express Cox-2 were treated with AITC or SF at the indicated concentrations for 24 h and then harvested for Western blot analysis of Cox-2. GAPDH is used as a loading control.

[4] = Storage stability at room temperature; type: physicochemical; details: data not shown
[5] = 24-h urinary recovery; type: in vivo; details: female, F344, rat, urine, po, 300 μmol/kg, single oral dose 300 μmol/kg
Method: Measurement of pharmacokinetic profiles of AITC and NAC-AITC. The experiment was carried out in female F344 rats since these animals were used in the rat bladder cancer model described above. Groups of three to five rats (8-9 weeks of age) were given a single oral dose of AITC, NAC-AITC or vehicles. AITC was administered in 0.5 ml of soy oil per rat, whereas NACAITC was dissolved in DMSO and diluted with water and administered in 0.2 ml volume (5% DMSO) per rat. The rats were immediately transferred to metabolism cages (one rat per cage), with free access to food and water, for urine collection over four consecutive periods of 0-1.5, 1.5-3, 3-6 and 6-24 h. […]
AITC and NAC-AITC contents in the plasma and urine were determined using the high-performance liquid chromatography (HPLC)-based cyclocondensation assay, and are expressed as AITC equivalent or NAC-AITC equivalent. […]
To specifically measure urinary levels of NAC-AITC, groups of five rats were dosed orally with either AITC or NAC-AITC at 300 μmol/kg and immediately moved to metabolism cages (one rat per cage) for 24 h urine collection. […] The compounds were monitored at both 230 nm (AITC) and 254 nm (its metabolites). […] The fraction corresponding to NAC-AITC was collected and quantified by the cyclocondensation assay; its identity was confirmed by infusion electrospray ionization mass spectrometry.

## C=CCN=C=S [AITC, allyl isothiocyanate]
[1]
  caspase-9 and caspase-3 activation: activation of both caspase-9 and caspase-3
  α-tubulin and β-tubulin levels: significantly down regulated
[2]
  IC50: 69.4 µM
[3]
  effect on Cox-2 expression: not detectable

## C=CCNC(=S)SC[C@H](NC(C)=O)C(=O)O [NAC-AITC, N-acetyl-S—(N-allylthiocarbamoyl)cysteine]
[4]
  stability when kept dry: at least 16 months
[5]; HPLC fraction, read-out: 24-h urinary recovery, Recovered as NAC-AITC, % of adminstered dose
  dose excreted: 47.3 ± 1.8%
[5]; read-out: 24-h urinary recovery, Recovered as NAC-AITC, % of total recovery
  dose excreted: 83.3%
